We go through 1 molecule from patent publication US20180193361A1, “GUT ANTI-INFLAMMATORY AGENTS FOR REGULATION OF HIGH BLOOD GLUCOSE LEVELS” (UNIVERSITY HEALTH NETWORK, priority 2015, published 2018).

Test [1] has as its system colon and small bowel lamina propria T cells. Put plainly: Flow cytometry of colon and small bowel lamina propria T cells, HFD or HFD 5-ASA. The class given is in vivo, mice. The conditions noted are these: HFD vs HFD 5-ASA 1500 mg/kg/day, 16 weeks. From the text:
Isolation of bowel immune cells. For isolation of small intestine lamina propria immune cells, we used the protocol described by Fritz et al (Fritz et al., 2012), and processed approximately 10 cm from the distal end of the small intestine (jejunum and ileum). For the isolation of colonic lamina propria immune cells, we used the protocol described by Geddes et al (Geddes et al., 2011). Following lamina propria isolations, we passed immune cells through 70 μm strainers, and used them for flow cytometry.
(§1) We stained single cell suspensions for 30 min on ice with commercial antibodies. Flow cytometry antibodies including CD45.2 (104), CD3 (145-2C11), CD4 (GK1.5), CD8 (53-6.7), CD25 (PC61), γδTcR (GL3), Foxp3 (150D), IL-17 (TC11-18H10.1), IFNγ XMG1.2), α4β7 (DATK32), CCR9 (CW-1.2), CD11b (M1/70), F4/80 (BM8), CD11c (N418), CD206 (C068C2), Gr-1 (RB6-8C5), IL-7Rα (A7R34), B220 (RA3-6B2), Thy1.2 (30-H12), NKp46 (29A1.4), and Sca-1 (D7) were purchased from Biolegend. Intracellular staining was performed using a Foxp3 staining buffer kit (eBioscience). We acquired data on a Fortessa flow cytometer (BD Biosciences) and analyzed it with FlowJo software (Tree Star). We gated ILCs as described (Kirchberger et al., 2013).

In test [2] the test system is spleen and blood immune cells, serum cytokines. Put plainly: Systemic immune function during HFD feeding (spleen, blood, serum cytokines). The class given is in vivo, mice. The conditions noted are these: HFD vs HFD 5-ASA. Here is the method: as §1
We measured serum cytokines by Luminex Multiplex cytokine assay (Millipore, run by the UHN Microarray Center), and quantified IL-10 and IFN-γ in supernatants of anti-CD3/CD28-stimulated splenocytes or bowel immune cells (Winer et al., 2009b) by ELISA (Biolegend).

Test [3] deals with splenic T cells. In words: In vitro IFNγ secretion, anti-CD3/CD28-activated splenic T cells. The class given is cell-based. The conditions noted are these: splenic T cells from HFD-fed WT mice, 72 hour; 5-ASA 0.1 mM. As to the method:
To measure the effect of IFNγ on tight-junction gene expression, we treated MODE-K cells with recombinant mouse IFNγ (Biolegend). We purified bulk dendritic cells and T cells from murine small bowels and spleens using a negative selection DC or T cell isolation kit (Stem Cell Technologies). We plated T cells at 5×10^5 cells/well with plate-bound anti-CD3/CD28 (1 μg/ml, Biolegend). […] We collected supernatants for cytokine measurements after 72 hour incubation. […] After 24 hours, we washed the cells with PBS and co-cultured them (1×10^4 cells/well) with OVA323-339 peptide and OT-II splenic or small bowel T cells (5×10^4 cells/well) for 48 hours. Supernatants were collected at 48 hours for cytokine measurement. We measured serum cytokines by Luminex Multiplex cytokine assay (Millipore, run by the UHN Microarray Center), and quantified IL-10 and IFN-γ in supernatants of anti-CD3/CD28-stimulated splenocytes or bowel immune cells (Winer et al., 2009b) by ELISA (Biolegend).

The target of test [4] is T1, PPARγ (Mus musculus, UniProt P37238).
T1 construct: from tissue; host or cells: purified small bowel T cells of HFD or HFD 5-ASA-fed mice (nuclear extracts)
T1 sequence (P37238 whole entry): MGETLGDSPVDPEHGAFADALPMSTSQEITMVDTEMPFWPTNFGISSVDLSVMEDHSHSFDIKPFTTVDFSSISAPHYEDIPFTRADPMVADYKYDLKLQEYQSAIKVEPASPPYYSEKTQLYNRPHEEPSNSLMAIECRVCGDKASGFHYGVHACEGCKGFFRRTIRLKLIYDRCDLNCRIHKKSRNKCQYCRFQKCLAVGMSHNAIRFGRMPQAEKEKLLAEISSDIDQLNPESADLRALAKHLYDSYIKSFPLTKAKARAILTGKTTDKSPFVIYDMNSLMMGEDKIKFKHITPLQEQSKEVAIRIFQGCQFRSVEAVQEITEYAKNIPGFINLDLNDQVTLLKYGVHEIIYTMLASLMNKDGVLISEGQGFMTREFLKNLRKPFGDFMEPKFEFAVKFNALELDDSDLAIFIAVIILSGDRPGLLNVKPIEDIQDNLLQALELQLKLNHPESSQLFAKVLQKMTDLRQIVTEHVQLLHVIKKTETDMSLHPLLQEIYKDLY
Put plainly: PPARγ activity assay in small bowel T cell nuclear extracts. The class given is in vivo. The conditions noted are these: purified small bowel T cells, mice fed HFD 5-ASA vs control HFD. From the text: We measured PPARγ functional activity in T cell nuclear extracts using a PPARγ transcription factor binding assay following vendor's instructions (ThermoScientific and Cayman Chemical Company). This ELISA-based assay is precoated with dsDNA containing the peroxisome proliferator response element (PPRE). PPARγ in the isolated nuclear extracts bind to PPRE. As per vendor's recommendations, this assay is specific to PPARγ and not to other PPARs (i.e., α or δ).

As to `Nc1ccc(O)c(C(=O)O)c1` [5-ASA, 5-aminosalicylic acid], in test [1] (colon and small bowel), the “IFNγ-secreting CD8+ T cells” value is recorded as “reduction”, the “IL-17-secreting γδ T cells” value is “reduction” and the Th1 cells result is “reduction”. Also, the Tregs entry in test [1] (small bowel) was “significant increase”. In test [2] (14 weeks), the “circulating immune cell polarity in the blood” value is given as “no effects” and the “immune cell populations in the spleen” value is on record as “no effects”. Also, the “serum levels of cytokines” value in test [2] (Luminex, 23 cytokines, 14 weeks) was “mostly unchanged”. For the same molecule, in test [2] (Luminex, 14 weeks), the “serum RANTES” value is on record as “significant but small increase” and the “serum TNFα” value is “reduction”. In addition, the “stimulated spleen immune cell cytokine secretion” value in test [2] (cultured splenocytes, anti-CD3/CD28 48 hrs) is “no effects”. Moreover, the IFNγ production entry in test [3] is given as “not”. For the same molecule, the PPARγ functional activity result in test [4] is listed as “increased”.
